Source: ChEMBL document CHEMBL1122941, “Design, synthesis, and pharmacological activities of 2-substituted 4-phenylquinolines as potential antidepressant drugs” (J Med Chem, 1985)

Legend:
[1] = Lethal dose was evaluated against reserpine induced hypothermia in mice by intraperitoneal administration; assay type: toxicity, organism-based; settings: mouse, in vivo, ip
[2] = tested on: Mus musculus; test: Effective dose was evaluated for its antagonism to reserpine induced hypothermia in mice by intraperitoneal administration; assay type: functional; settings: ip
[3] = Therapeutic index as the ratio of LD50 to that of ED50 values.

| Structure (SMILES) | LD50 [1] [mg/kg] | ED50 [2] [mg/kg] | therapeutic index (LD50/ED50) [3] |
| --- | --- | --- | --- |
| CN(C)CCCSc1cc(-c2ccccc2)c2ccccc2n1.Cl | 189 | > 50 |  |
| Cl.c1ccc(-c2cc(N3CCNCC3)nc3ccccc23)cc1 | 152 | 12 | 12.7 |
| CN(C)CCCNc1cc(-c2ccccc2)c2ccccc2n1.Cl | 100 | > 50 |  |
| CCN(CC)Cc1cc(-c2ccccc2)c2ccccc2n1.Cl | 163 | > 50 | 7.76 |
| CN(C)CCCOc1cc(-c2ccccc2)c2ccccc2n1.Cl | 200 | > 50 |  |
| CN(C)CCNc1cc(-c2ccccc2)c2ccccc2n1.Cl | 102 | 26 | 3.92 |
| CN(C)CCSc1cc(-c2ccccc2)c2ccccc2n1.Cl | 198 | 42.1 | 4.7 |
| CN(C)CCN(C)c1cc(-c2ccccc2)c2ccccc2n1.Cl | 98 | 27 | 3.63 |
| CN(C)CCOc1cc(-c2ccccc2)c2ccccc2n1.Cl | 202 | 18.5 | 10.9 |
| Cl.O=c1n(CCCN2CCN(c3cc(-c4ccccc4)c4ccccc4n3)CC2)nc2ccccn12 | 390 | 40.2 | 9.7 |
| Cl.ClCCCN1CCN(c2cc(-c3ccccc3)c3ccccc3n2)CC1 | 385 | 18 | 21.4 |
| CN(C)CCCN(C)c1cc(-c2ccccc2)c2ccccc2n1.Cl | 110 | > 50 |  |
| CN(C)CCCN1c2ccccc2CCc2ccccc21 [IMIPRAMINE] |  | 21 |  |
| c1ccc2nc(N3CCNCC3)ccc2c1 [QUIPAZINE] | 135 | 35.4 |  |
| O=c1n(CCCN2CCN(c3cccc(Cl)c3)CC2)nc2ccccn12 [TRAZODONE] |  | > 50 |  |
